According to PMC4452296, “Comparison of Paeoniflorin and Albiflorin on Human CYP3A4 and CYP2D6” (Evidence-based Complementary and Alternative Medicine : eCAM, 2015):

How the values were obtained:
[1] = molecular target: CYP3A4 (Homo sapiens, UniProt P08684); test: biochemical
[2] = molecular target: CYP2D6 (Homo sapiens, UniProt P10635); test: biochemical
Chain of CYP2D6 (P10635 whole entry): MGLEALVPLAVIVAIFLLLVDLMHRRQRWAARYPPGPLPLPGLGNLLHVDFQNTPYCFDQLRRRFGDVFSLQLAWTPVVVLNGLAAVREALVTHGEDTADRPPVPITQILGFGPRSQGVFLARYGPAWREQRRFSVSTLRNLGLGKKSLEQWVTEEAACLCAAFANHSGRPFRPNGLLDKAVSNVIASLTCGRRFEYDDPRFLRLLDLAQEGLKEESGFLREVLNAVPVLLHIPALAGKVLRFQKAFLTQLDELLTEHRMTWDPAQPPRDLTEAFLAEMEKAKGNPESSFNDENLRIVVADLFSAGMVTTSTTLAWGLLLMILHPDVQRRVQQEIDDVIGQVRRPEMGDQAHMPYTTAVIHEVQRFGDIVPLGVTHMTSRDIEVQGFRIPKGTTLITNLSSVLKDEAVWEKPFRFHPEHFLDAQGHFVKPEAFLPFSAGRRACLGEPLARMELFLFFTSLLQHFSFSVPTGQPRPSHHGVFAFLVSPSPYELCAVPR

Chain of CYP3A4 (P08684 2-503): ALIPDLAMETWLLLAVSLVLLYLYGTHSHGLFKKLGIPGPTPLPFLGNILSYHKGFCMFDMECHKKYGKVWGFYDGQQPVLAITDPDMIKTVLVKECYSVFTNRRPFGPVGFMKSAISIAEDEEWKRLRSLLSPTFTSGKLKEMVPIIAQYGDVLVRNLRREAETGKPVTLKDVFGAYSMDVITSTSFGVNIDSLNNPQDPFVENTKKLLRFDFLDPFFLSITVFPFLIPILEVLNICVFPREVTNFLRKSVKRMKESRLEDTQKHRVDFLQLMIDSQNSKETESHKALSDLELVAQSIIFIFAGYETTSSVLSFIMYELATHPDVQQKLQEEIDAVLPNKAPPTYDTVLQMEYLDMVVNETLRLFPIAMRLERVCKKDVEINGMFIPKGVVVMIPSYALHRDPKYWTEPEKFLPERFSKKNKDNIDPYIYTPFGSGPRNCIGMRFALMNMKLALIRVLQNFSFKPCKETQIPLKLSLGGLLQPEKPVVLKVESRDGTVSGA

| IC50 [1] [mM] | IC50 [2] [mM] | SMILES |
| --- | --- | --- |
| 11.4 | 14.4 | CC12CC(O)C3CC1(O[C@@H]1O[C@H](CO)[C@@H](O)[C@H](O)[C@H]1O)C3(COC(=O)c1ccccc1)C(=O)O2 (stereo partly shown) [albiflorin] |
| 4.79 | 12.7 | C[C@@]12C[C@@]3(O)O[C@@H](O1)[C@]1(COC(=O)c4ccccc4)[C@H]3C[C@@]12O[C@@H]1O[C@H](CO)[C@@H](O)[C@H](O)[C@H]1O [paeoniflorin] |
